Source: US10526343B2, “Heterocyclic systems and pharmaceutical applications thereof” (University of Sharjah, priority 2018, dated 2020)

Experiments:
Assay type in all cases: cell-based
[1] = system: UDH-6 (environmental isolate, S. haemolyticus); assay: MIC by broth microdilution
Procedure, shortened: (§1)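 The strains are multidrug-resistant environmental isolates, and MICs were measured by CLSI broth microdilution in Mueller-Hinton broth using two-fold dilutions from 100 to 0.78 μg/mL, incubated 20 h at 37 °C. CellTiter-Blue was then added for 4 h at 37 °C, and the MIC was taken as the lowest concentration preventing the blue-to-pink colour change.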

[2] = system: UDH-2 (environmental isolate, S. saprophyticus); assay: MIC by broth microdilution; conditions: Staphylococcus saprophyticus
Procedure, shortened: as §1

[3] = system: UDH-5 (environmental isolate, S. epidermidis); assay: MIC by broth microdilution; conditions: Staphylococcus epidermidis
Procedure, shortened: as §1

[4] = system: UDH-4 (environmental isolate, S. saprophyticus); assay: MIC by broth microdilution; conditions: Staphylococcus saprophyticus
Procedure, shortened: as §1

[5] = system: UDH-3 (environmental isolate, S. saprophyticus); assay: MIC by broth microdilution
Procedure, shortened: as §1

[6] = system: UDH-7 (environmental isolate, S. haemolyticus); assay: MIC by broth microdilution
Procedure, shortened: as §1

[7] = system: UDH-1 (environmental isolate, S. saprophyticus); assay: MIC by broth microdilution
Procedure, shortened: as §1

[8] = system: Staphylococcus aureus (ATCC 25923); assay: Cell viability assay (resazurin) screening for antibacterial activity; conditions: single high concentration of 1 mg/mL
[9] = system: MRSA-3 (clinical isolate, methicillin-resistant Staphylococcus aureus); assay: MIC by broth microdilution
Procedure, shortened: (§2)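 CLSI broth microdilution in Mueller-Hinton broth, two-fold series from 100 to 0.78 μg/mL, incubated 20 h at 37 °C. CellTiter-Blue then added for 4 h at 37 °C. MIC is the lowest concentration preventing the blue-to-pink color change, i.e. no bacterial growth.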

[10] = system: MRSA-2 (clinical isolate, methicillin-resistant Staphylococcus aureus); assay: MIC by broth microdilution
Procedure, shortened: as §2

[11] = system: MRSA-1 (clinical isolate, methicillin-resistant Staphylococcus aureus); assay: MIC by broth microdilution
Procedure, shortened: as §2

S. aureus (ATCC 25923) = assay: MIC by broth microdilution; conditions: Staphylococcus aureus, ATCC25923
Procedure, shortened: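 CLSI broth microdilution in Mueller-Hinton broth, two-fold dilutions over 100–0.78 μg/mL, 20 hours at 37° C. CellTiter-Blue then added for 4 hours at 37° C.; MIC was the lowest concentration preventing the blue-to-pink colour change.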

[12] = Staphylococcus haemolyticus, environmental isolate
[13] = Staphylococcus saprophyticus, environmental isolate

MIC [2]: 6.25 µg/mL
MIC [3]: 3.12 µg/mL
MIC [4]: 6.25 µg/mL
MIC [5, 13]: 3.12 µg/mL
times lower than MIC of ciprofloxacin ([5]; UDH-3): approximately 20 times
MIC [7, 13]: 6.25 µg/mL
times lower than MIC of ciprofloxacin ([7]; UDH-1): approximately 10 times
MIC [9]: 3.12 µg/mL
MIC [10]: 3.12 µg/mL
times lower than the MIC of ciprofloxacin ([11]; MRSA-1): approximately 10 times
MIC ([11]; Staphylococcus aureus, MRSA, clinical isolate): 3.12 µg/mL
MIC (S. aureus (ATCC 25923)): 3.12 µg/mL
SMILES: COC(=O)CC1COc2c(cc3c4c2CCCN4CCC3)-c2c(NC(C)(C)C)n3c(-c4ccc(Br)cc4)c(C)sc3[n+]21 (centres unmarked) [Compound 1o]
MIC [1, 12]: 6.25 µg/mL
times lower than MIC of ciprofloxacin ([1]; UDH-6): approximately 10 times
MIC [6, 12]: 6.25 µg/mL
times lower than MIC of ciprofloxacin ([6]; UDH-7): approximately 10 times
antibacterial activity, Staphylococcus aureus [8]: positive antibacterial activities
